In patent US7589070B2, “Surface modification for improving biocompatibility” (The Children's Hospital of Philadelphia, priority 2001, dated 2009):

Key:
[1] = Surface phosphorus content of pamidronate-treated steel by SEM and EDAX; assay type: physicochemical
[2] = test system: rat A10 arterial smooth muscle cells; experiment: In vitro transduction of A10 cells by adenovirus GFP tethered to steel stents/rods; assay type: cell-based
Method: A type 5 adenovirus vector encoding GFP was used in this experiment. Stainless steel stents were incubated with amino-pamidronate, SPDP and anti-adenovirus knob F(ab)′2 antibody; amino-pamidronate and SPDP; amino-pamidronate only; or a stent only, without modification. The specific anti-adenovirus knob F(ab′)2 bound stents were incubated in the ad-GFP solution for 1 hour at 37 C. The virus loading in the incubation pool was 1×10^8 pfu/stent for all groups. The stents were then removed from the virus pool and rinsed with PBS followed by overnight washing. Images obtained by atomic force microscopy confirmed that high levels of vector immobilization could be achieved by this method.
The virus binding efficacy was evaluated in vitro using rat A10 arterial smooth muscle cells. A cell suspension of 5×10^4 A10 cells per ml of M199 medium was prepared with 10% FBS and 1% penicillin/streptomycin. The stent was rinsed with M199 medium once and equilibrated in the M199 medium at 37 C. for 10 minutes in a 6 well culture plate. The medium from the wells was aspirated, holding the stents, and 2 ml cell suspension was added to each well. Cell transduction was observed by fluorescence microscopy using a FITC filter. […] 90% of cells with adenovirus GFP anti-the antibody bound stent were transduced. […] Consequently, transduction efficiency is enhanced in vitro in antibody-bound stents compared to control stents.
A10 smooth muscle cells were transduced with SPDP-anti-adenovirus knob F(ab)′2 antibody-adenovirus GFP bound stainless steel rods, and pretreated with either 1.5 M pamidronate, 3.0 M pamidronate or 5.0 M pamidronate. Cell transduction was proportional to the pamidronate concentration used in a reaction. […] Accordingly, A10 cell transduction efficiency is related to pamidronate concentration used in the reaction.

NCCC(O)(P(=O)(O)O)P(=O)(O)O [pamidronate, 3-amino-hydroxypropylidene-1,1-bisphosphonic acid]
phosphorus percent by weight ([1]; stainless steel rod after reaction with pamidronate at pH 5, EDAX): 13%
phosphorus percent by weight ([1]; stainless steel rod after reaction with pamidronate at pH 7, EDAX): 1%
cell transduction (qualitative) ([2]; pretreated with 5 M pamidronate): did not show much increase in cell transduction
cell transduction (qualitative) ([2]; steel rods pretreated with 1.5 M pamidronate): much less cell transduction
cell transduction (qualitative) ([2]; steel rods pretreated with 3.0 M pamidronate): optimal
